The text below walks through data of article PMC8007633, “The effect of Aspalathus linearis (Burm.f.) R.Dahlgren and its compounds on tyrosinase and melanogenesis” (Scientific Reports, 2021).

Converted amounts (≈) assume the structure as drawn. Where two headings read alike, the source gives them in different places. Starred links: 1 amine or outer side, 2 acyl side, 3 side chain; linkers in the order of their positions; H or OH if unused. Positions of bridges follow the written chain, without caps; N, C: chain ends. Non-standard residues stand in square brackets, D forms with d. Residues, ends and D or L forms follow the SMILES beside them. Chains are numbered I, II in the order given. Actinocin(9to1) = Cc1c2oc3c(C)ccc(C(=O)[*:1])c3nc-2c(C(=O)[*:2])c(N)c1=O; NMeV = CN[C@H](C(=O)O)C(C)C; Sar = CNCC(=O)O

Experiment [1] addresses T1, mushroom tyrosinase (Agaricus bisporus, UniProt C7FF04).
T1 construct: purchased Sigma-Aldrich Co. LLC, St. Louis, MO, USA
As to the kind of experiment: Diphenolase tyrosinase assay (enzymatic rate, L-dopa as substrate). The note with it: for Tyrosinase activity at 200 µg/mL (fold increase): rate over 30 min at 37 °C versus vehicle control; for Tyrosinase stimulation, fold increase: enzyme rate of the sample divided by enzyme rate of the vehicle control. In kind it is biochemical.

In experiment [2] the target is T2, tyrosinase (Agaricus bisporus, UniProt C7FF04).
T2 construct: purchased Sigma-Aldrich Co. LLC, St. Louis, MO, USA
Description: Tyrosinase enzyme kinetics in the absence of the substrate (subversive substrate properties). In kind it is biochemical, mushroom. The following applies: for Vmax (substrate properties): Table 3.

The target in experiment [3] is T1, mushroom tyrosinase. Description: Tyrosinase enzyme kinetics: change in L-dopa kinetics, type of inhibition. The following applies: for VMAX, Michaelis-Menten plot data of the inhibitors (Figure S 3): L-dopa with inhibitor; for Type of inhibition: enzyme kinetic studies; for Change in L-dopa kinetics, Vmax: maximum enzyme velocity. The experiment is classed as biochemical.

Experiment [4] has as its system human melanoma cells (UCT-Mel1). Description: Antiproliferative assay (Presto blue, 72 h). In kind it is cell-based. The note with it: for IC50 / EC50: Homo sapiens; for EC50 / HillSlope, sigmoidal dose-response best-fit (Table S 10) / LogEC50, sigmoidal dose-response best-fit (Table S 10): variable slope; for EC50: bottom 0, top 100, read-out: EC50, sigmoidal dose-response best-fit (Table S 10).

Experiment [5] relates to human melanocytes (UCT-Mel-1). Description: Masson Fontana assay (melanin produced). The experiment is classed as cell-based. The following applies: for Increase in melanin produced: 265 µM (aspalathin 119.82 µg/mL, catechin 76.92 µg/mL); for Mean Diff., Negative vs sample, melanin produced (Table S 11): Dunnett's multiple comparison versus untreated melanocytes. As for the experimental part: The cells were cultured as previously described. The silver nitrate solution was prepared, as described by Kwon-Chung et al.[34]. The cells were fixed and treated with the AgNO3 working solution for 40 min at 56 °C (in the dark). Following incubation, the cells were treated with sodium thiosulphate (52.63 mg/mL) for 1 min and rinsed with water. The cells were counterstained using haematoxylin. The washed cells were dehydrated and fixed on microscope slides. Light microscopy images were taken using a Zeiss Primo Vert light microscope and analysed with ImageJ[34].

The target in experiment [6] is tyrosinase. The note with it: cited from earlier work; for IC50: read-out: Antityrosinase IC50, previously reported.
The mark [7] stands for this setting: Tyrosinase stimulation EC50 ± SD, relative EC50, 50% of maximal response.
Setting [8] is: Tyrosinase stimulation EC50 ± SD, relative EC50, value in brackets.
The mark [9] stands for this setting: compound as substrate, absence of L-dopa.
Setting [10] is: value in brackets, read-out: Antiproliferative IC50 (converted).

T1 sequence (C7FF04 1-392 limits assumed): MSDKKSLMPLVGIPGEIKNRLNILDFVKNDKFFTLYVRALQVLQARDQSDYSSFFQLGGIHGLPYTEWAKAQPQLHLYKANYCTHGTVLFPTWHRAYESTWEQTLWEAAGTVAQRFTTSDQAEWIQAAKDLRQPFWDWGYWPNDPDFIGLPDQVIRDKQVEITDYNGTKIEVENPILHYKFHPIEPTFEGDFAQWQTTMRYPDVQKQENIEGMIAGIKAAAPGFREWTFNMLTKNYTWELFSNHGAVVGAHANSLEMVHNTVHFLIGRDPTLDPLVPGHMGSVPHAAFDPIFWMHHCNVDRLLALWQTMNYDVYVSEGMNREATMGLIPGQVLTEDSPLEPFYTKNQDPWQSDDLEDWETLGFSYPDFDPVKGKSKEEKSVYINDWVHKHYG
T2 sequence (C7FF04 1-392 limits assumed): as above

Consider `O=c1cc(-c2ccc(O)cc2)oc2c([C@@H]3O[C@H](CO)[C@@H](O)[C@H](O)[C@H]3O)c(O)cc(O)c12` [Vitexin (15), vitexin], for which the IC50 (in general, the concentration that inhibits the measured activity by half) against mushroom tyrosinase [1] is > 694 µM.

In the case of `O=C(O)/C=C/c1ccc(O)c(O)c1` [Caffeic acid (2), caffeic acid], the EC50 on mushroom tyrosinase [1] (setting [7]) and at mushroom tyrosinase [1] (setting [8]) was 228 µM throughout. Further, the “Vmax (substrate properties)” value on tyrosinase [2] (setting [9]) is recorded as 120.9 (± 15.5) mOD/min.

For `COc1cc(C(=O)O)cc(OC)c1O` [Syringic acid (13), syringic acid], the IC50 on mushroom tyrosinase [1] was > 1510 µM.

For `O=C(O)/C=C/c1ccc(O)cc1` [p-Coumaric acid (9), p-coumaric acid], on mushroom tyrosinase [1], half-maximal inhibition (IC50) required 153 ± 7.01 µM and the “Tyrosinase inhibitory activity in words” value is given as “Moderate inhibitory activity”. For the same compound, at mushroom tyrosinase [3], the “VMAX, Michaelis-Menten plot data of the inhibitors (Figure S 3)” value (“VMAX … of the inhibitors (Figure S 3)” for short) is 17.71 ± 0.66 µmol/min; the Type of inhibition result is recorded as “competitive inhibition”; the “Change in L-dopa kinetics, Vmax” value was found to be 17.71 ± 0.66 µM/min.

As to `COc1cc(/C=C/C(=O)O)ccc1O` [Ferulic acid (5), ferulic acid], on mushroom tyrosinase [1], the IC50 is > 1500 µM.

For the compound `N[C@@H](Cc1ccc(O)c(O)c1)C(=O)O` [L-dopa, reference compound], at mushroom tyrosinase [3], the “Change in L-dopa kinetics, Vmax” value was determined as 22.82 ± 1.07 µM/min. Moreover, the “Vmax (substrate properties)” value at tyrosinase [2] (setting [9]) is recorded as 22.8 (± 1.1) mOD/min.

Regarding `Cc1c2oc3c(C)ccc(C(=O)N[C@@H]4C(=O)N[C@H](C(C)C)C(=O)N5CCC[C@H]5C(=O)N(C)CC(=O)N(C)[C@@H](C(C)C)C(=O)O[C@@H]4C)c3nc-2c(C(=O)N[C@@H]2C(=O)N[C@H](C(C)C)C(=O)N3CCC[C@H]3C(=O)N(C)CC(=O)N(C)[C@@H](C(C)C)C(=O)O[C@@H]2C)c(N)c1=O` [Actinomycin D, reference compound] (I: T[dV]P[Sar][NMeV] / II: T[dV]P[Sar][NMeV]; ester I:1-I:C, II:1-II:C; linker I:N-II:N via Actinocin(9to1)), the 50% inhibitory concentration (IC50) in experiment [4] (72 h, read-out: Antiproliferative IC50 ± standard deviation) is 0.039 ± 0.002 µg/mL.

With `Oc1cc(O)c2c(c1)O[C@H](c1ccc(O)c(O)c1)[C@@H](O)C2` [Catechin (3), (+)-catechin], at mushroom tyrosinase [1], the “Tyrosinase activity at 200 µg/mL (fold increase)” value came out at 0.41 fold increase and the “Tyrosinase stimulation, fold increase” value came to 0.40 fold. In addition, the “Tyrosinase stimulation, fold increase” value on mushroom tyrosinase [1] (listed as catechin (3)) was 0.4 fold. For the same compound, the EC50 (usually the concentration giving half of the maximal effect) at mushroom tyrosinase [1] (relative EC50, 50% of maximal response, read-out: Tyrosinase stimulation EC50 ± SD (converted)) was 494 µM. On mushroom tyrosinase [1] (relative EC50, value in brackets, read-out: Tyrosinase stimulation EC50 ± SD (converted)), the EC50 was 494 µM. Further, in experiment [4] (concentration where 50% of the cells are viable, 72 h, read-out: Antiproliferative IC50 ± standard deviation), the IC50 amounted to 166.3 ± 1.14 µg/mL. In addition, the IC50 in experiment [4] (setting [10]) is 573 µM. In experiment [4], the concentration for a half-maximal effect (EC50) worked out at 166 µg/mL (≈ 573 µM); the “HillSlope, sigmoidal dose-response best-fit (Table S 10)” value was -3.06; the “LogEC50, sigmoidal dose-response best-fit (Table S 10)” value was 2.22. Further, on mushroom tyrosinase [3], the “Change in L-dopa kinetics, Vmax” value is 382.40 ± 7.03 µM/min. Further, the “Masson Fontana % increase in melanin produced” value in experiment [5] (100 µg/mL, versus untreated cells) is 5.72%. Also, in experiment [5] (listed as catechin), the “Increase in melanin produced” value came out at 4.5%. The “Increase in melanin produced” value in experiment [5] (listed as catechin (3)) is given as “approximately 4.5%”. In experiment [5], the “Mean Diff., Negative vs sample, melanin produced (Table S 11)” value is on record as -15.08. Also, the “Substrate catalytic efficiency, times higher than native substrate L-dopa” value at tyrosinase [2] was found to be 4 times. In addition, on tyrosinase [2] (absence of the substrate L-dopa), the “VMAX, subversive substrates (Figure S 5)” value stood at 382.4 ± 7.03 µmol/min. Moreover, at tyrosinase [2] (compound as substrate), the “Vmax (absence of the substrate)” value is listed as 382.4 ± 7.0 µM/min and the “kcat (catalytic constant)” value is 229.7 s⁻¹. Moreover, on tyrosinase [2] (setting [9]), the Km – broadly, the substrate concentration at which the rate is half of its maximum – was 471 µM and the “Vmax (substrate properties)” value is recorded as 382.4 (± 7.0) mOD/min.

`CCCOC(=O)c1cc(O)c(O)c(O)c1` [n-Propyl gallate (10), n-propyl gallate]: on mushroom tyrosinase [1], the “Tyrosinase inhibitory activity in words” value was “Moderate inhibitory activity”. In addition, at mushroom tyrosinase [1] (read-out: Tyrosinase inhibition IC50 ± SD), the 50% inhibitory concentration (IC50) turned out to be 534.9 ± 5.09 µM. Besides, at mushroom tyrosinase [3], the “VMAX … of the inhibitors (Figure S 3)” value amounted to 20.56 ± 1.72 µmol/min and the Type of inhibition entry is reported as “non-competitive inhibition”.

As to `Oc1ccc(O)cc1` [hydroquinone], at tyrosinase [6], the IC50 is 19.8 ± 1.05 µM.

`O=C(/C=C/c1ccc(O)c(O)c1)O[C@H](Cc1ccc(O)c(O)c1)C(=O)O` [Rosmarinic acid (12), rosmarinic acid]: the IC50 at mushroom tyrosinase [1] turned out to be 7.33 ± 3.33 µM. Besides, the IC50 at tyrosinase [6] was 4 µM. Besides, on mushroom tyrosinase [3], the “VMAX … of the inhibitors (Figure S 3)” value was 19.72 ± 1.01 µmol/min and the Type of inhibition entry is “competitive inhibition”.

`Oc1ccc(/C=C/c2cc(O)cc(O)c2)cc1` [resveratrol]: in the experiment on tyrosinase [6], the “Type of tyrosinase inhibition, well-known inhibitors” value is on record as “non-competitive” and the IC50 was 27.7 ± 1.15 µM.

Take `O=C(O)c1ccc(O)cc1` [4-Hydroxybenzoic acid (6), 4-hydroxy benzoic acid]: the concentration for half-maximal inhibition (IC50) on mushroom tyrosinase [1] turned out to be 1868 ± 9.34 µM. In addition, on mushroom tyrosinase [3], the “VMAX … of the inhibitors (Figure S 3)” value is 35.00 ± 1.84 µmol/min and the “Change in L-dopa kinetics, Vmax” value is listed as 35.00 ± 1.84 µM/min.

As for `O=C(CCc1ccc(O)c(O)c1)c1c(O)cc(O)c(C2OC(CO)C(O)C(O)C2O)c1O` (stereo not drawn) [Aspalathin (1), aspalathin], at mushroom tyrosinase [1], the “Tyrosinase activity at 200 µg/mL (fold increase)” value is 1.11 fold increase. For the same compound, the EC50 was 265 µM at mushroom tyrosinase [1] (setting [7]), 265 µM at mushroom tyrosinase [1] (setting [8]) and 218 µg/mL (≈ 481 µM) in experiment [4]. The “Tyrosinase stimulation, fold increase” value on mushroom tyrosinase [1] amounted to 1.10 fold. In addition, the IC50 in experiment [4] (72 h, concentration where 50% of the cells are viable, 72 h, read-out: Antiproliferative IC50 ± standard deviation) is > 200 µg/mL; in experiment [4] (setting [10]), 482 µM. Further, in experiment [4] (concentration where 50% of the cells are viable, 72 h), the “Antiproliferative IC50 ± standard deviation” value is on record as 217.75 ± 1.23 µg/mL. The “HillSlope, sigmoidal dose-response best-fit (Table S 10)” value in experiment [4] is recorded as -5.86. Further, in experiment [4], the “LogEC50, sigmoidal dose-response best-fit (Table S 10)” value came to 2.34. Further, the “Change in L-dopa kinetics, Vmax” value at mushroom tyrosinase [3] came to 68.73 ± 3.47 µM/min. Further, the “Increase in melanin produced” value in experiment [5] (listed as Aspalathin) is on record as “approximately 4.5%”; in experiment [5] (listed as aspalathin), 4.5%. Further, the “Mean Diff., Negative vs sample, melanin produced (Table S 11)” value in experiment [5] was -8.382. Also, the “Substrate catalytic efficiency, times lower than native substrate” value at tyrosinase [2] is recorded as 3–4 times. Besides, at tyrosinase [2] (setting [9]), the “Vmax (substrate properties)” value is given as 68.7 (± 3.5) mOD/min.

Regarding `O=c1c(O[C@@H]2O[C@H](CO)[C@@H](O)[C@H](O)[C@H]2O)c(-c2ccc(O)c(O)c2)oc2cc(O)cc(O)c12` [Isoquercitrin (7), isoquercitrin], at mushroom tyrosinase [1], the half-inhibitory concentration (IC50) is > 646 µM. For the same compound, the Type of inhibition result on mushroom tyrosinase [3] was “competitive inhibition”.

Regarding `O=C(O)/C=C/c1ccccc1` [Cinnamic acid (4), cinnamic acid], at mushroom tyrosinase [1], the IC50 amounted to 943.6 ± 8.1 µM and the “Tyrosinase inhibitory activity in words” value is “Moderate inhibitory activity”. Further, at mushroom tyrosinase [3], the “VMAX … of the inhibitors (Figure S 3)” value was 16.82 ± 0.37 µmol/min; the Type of inhibition entry is reported as “competitive inhibition”; the “Change in L-dopa kinetics, Vmax” value is reported as 16.82 ± 0.37 µM/min.
